“And” between values parts separate entries of the source, which are not always exact repeats. Equal entries are not always repeated.
Assays:
Ctenocephalides felis [1] = test: Flea control on dogs given oral doses (gelatin capsules), Table III; assay type: in vivo; design: key to Flea Control: 100% Control; PC: Partial Control; NC: No Control
Method: Five groups of two mongrel dogs each were dosed daily with 0, 0.78, 3.1, 12.5 or 50 mg. O,O,O',O'-tetramethyl O,O'-thiodi-p-phenylene phosphorothioate/kg. body weight in gelatin capsules for 10 days. Medication began three days after infestations with 100 adult Ctenocephalides felis. […] Purina High Protein Dog Meal was fed once daily for the duration of the experiment. Water was provided ad libitum. The following table summarizes the results of the test.

Ctenocephalides felis [2] = test: 2% powder for control of flea infestations on dogs; assay type: in vivo; conditions: for Percent of Dogs with Control / Number of Dogs on Which Fleas were Controlled: 20 mg/kg 2% powder; for Average Dead in Treated / No. of Dead Fleas Recovered in 48 Hrs.: 20 mg/kg; for No. of Dead Fleas Recovered in 48 Hrs.: Trial 1, individual dogs
Method: An experiment was carried out to determine the activity of O,O,O',O'-tetramethyl O,O'-thiodi-p-phenylene phosphorothioate 2% powder for the control of Ctenocephalides felis infestations on dogs. A group of 40 dogs of mixed breeds were obtained from a licensed laboratory animal dealer and housed in individual cages. The 2% powder was formulated from a 25% dust concentrate containing […] O,O,O',O'-tetramethyl O,O'-thiodi-p-phenylene phosphorothioate, 24% celite 209 and 50% acidic kaolin. Talc was used to dilute the concentrate to 2% active ingredient. Each dog was infested with 100 1 day old adult C. felis 72 hours prior to treatment and reinfested on a weekly basis for 6 weeks beginning 7 days after treatment. Each dog was treated with 20 mg. actual drug per kg. body weight formulated as a 2% powder. Five or more dogs were treated with a blank powder and used as infested controls. Table XV summarizes average dead fleas in treated versus average dead fleas in control.

Structure (SMILES): COP(=S)(OC)Oc1ccc(Sc2ccc(OP(=S)(OC)OC)cc2)cc1 [O,O,O',O'-tetramethyl O,O'-thiodi-p-phenylene phosphorothioate]
- flea activity (Ctenocephalides felis [1]; oral 0.78 mg/kg): no flea activity was observed
- Flea Control (Ctenocephalides felis [1]; oral 3.1 mg/kg daily, day 0): NC
- Flea Control (Ctenocephalides felis [1]; oral 3.1 mg/kg daily, day 1): NC
- Flea Control (Ctenocephalides felis [1]; oral 3.1 mg/kg daily, day 2): NC
- Flea Control (Ctenocephalides felis [1]; oral 3.1 mg/kg daily, day 3): PC
- Flea Control (Ctenocephalides felis [1]; oral 3.1 mg/kg daily, day 4): PC
- Flea Control (Ctenocephalides felis [1]; oral 3.1 mg/kg daily, day 7): 100 (100% Control)
- Flea Control (Ctenocephalides felis [1]; oral 3.1 mg/kg, both dogs, after 7 days): complete control
- Flea Control (Ctenocephalides felis [1]; oral 12.5 mg/kg daily, day 0): NC
- Flea Control (Ctenocephalides felis [1]; oral 12.5 mg/kg daily, day 2): PC
- Flea Control (Ctenocephalides felis [1]; oral 12.5 mg/kg daily, day 3): PC
- Flea Control (Ctenocephalides felis [1]; oral 12.5 mg/kg daily, day 4): PC
- Flea Control (Ctenocephalides felis [1]; oral 12.5 mg/kg daily, day 7): 100 (100% Control)
- Flea Control (Ctenocephalides felis [1]; oral 12.5 mg/kg, another dog, after 7 days): complete control
- Flea Control (Ctenocephalides felis [1]; oral 12.5 mg/kg, one dog, after 24 hours): complete control
- Flea Control (Ctenocephalides felis [1]; oral 50 mg/kg daily, day 0): NC
- Flea Control (Ctenocephalides felis [1]; oral 50 mg/kg daily, day 1): 100 (100% Control)
- Flea Control (Ctenocephalides felis [1]; oral 50 mg/kg, after 24 hours): complete flea control
- Flea Control (Ctenocephalides felis [1]; oral .78 mg/kg daily, day 0): NC
- Flea Control (Ctenocephalides felis [1]; oral .78 mg/kg daily, day 1): NC
- Flea Control (Ctenocephalides felis [1]; oral .78 mg/kg daily, day 2): NC
- Flea Control (Ctenocephalides felis [1]; oral .78 mg/kg daily, day 3): NC
- Flea Control (Ctenocephalides felis [1]; oral .78 mg/kg daily, day 4): NC
- Flea Control (Ctenocephalides felis [1]; oral .78 mg/kg daily, day 7): NC
- Flea Control (Ctenocephalides felis [1]; oral .78 mg/kg daily, day 8): NC
- Percent of Dogs with Control (Ctenocephalides felis [2]; week 0): 100%
- Percent of Dogs with Control (Ctenocephalides felis [2]; week 1): 100%
- Percent of Dogs with Control (Ctenocephalides felis [2]; week 2): 100%
- Percent of Dogs with Control (Ctenocephalides felis [2]; week 3): 100%
- Percent of Dogs with Control (Ctenocephalides felis [2]; week 4): 92.5%
- Percent of Dogs with Control (Ctenocephalides felis [2]; week 5): 80%
- Percent of Dogs with Control (Ctenocephalides felis [2]; week 6): 45%
- Number of Dogs on Which Fleas were Controlled (Ctenocephalides felis [2]; Combination of Test 1 & 2, week 0, of 40): 40 dogs
- Number of Dogs on Which Fleas were Controlled (Ctenocephalides felis [2]; Combination of Test 1 & 2, week 1, of 40): 40 dogs
- Number of Dogs on Which Fleas were Controlled (Ctenocephalides felis [2]; Combination of Test 1 & 2, week 2, of 40): 40 dogs
- Number of Dogs on Which Fleas were Controlled (Ctenocephalides felis [2]; Combination of Test 1 & 2, week 3, of 40): 40 dogs
- Number of Dogs on Which Fleas were Controlled (Ctenocephalides felis [2]; Combination of Test 1 & 2, week 4, of 40): 37 dogs
- Number of Dogs on Which Fleas were Controlled (Ctenocephalides felis [2]; Combination of Test 1 & 2, week 5, of 40): 32 dogs
- Number of Dogs on Which Fleas were Controlled (Ctenocephalides felis [2]; Combination of Test 1 & 2, week 6, of 40): 18 dogs
- Number of Dogs on Which Fleas were Controlled (Ctenocephalides felis [2]; Experiment 1, week 0, of 20): 20 dogs
- Number of Dogs on Which Fleas were Controlled (Ctenocephalides felis [2]; Experiment 1, week 1, of 20): 20 dogs
- Number of Dogs on Which Fleas were Controlled (Ctenocephalides felis [2]; Experiment 1, week 2, of 20): 20 dogs
- Number of Dogs on Which Fleas were Controlled (Ctenocephalides felis [2]; Experiment 1, week 3, of 20): 20 dogs
- Number of Dogs on Which Fleas were Controlled (Ctenocephalides felis [2]; Experiment 1, week 4, of 20): 17 dogs
- Number of Dogs on Which Fleas were Controlled (Ctenocephalides felis [2]; Experiment 1, week 5, of 20): 14 dogs
- Number of Dogs on Which Fleas were Controlled (Ctenocephalides felis [2]; Experiment 1, week 6, of 20): 5 dogs
- Number of Dogs on Which Fleas were Controlled (Ctenocephalides felis [2]; Experiment 2, week 0, of 20): 20 dogs
- Number of Dogs on Which Fleas were Controlled (Ctenocephalides felis [2]; Experiment 2, week 1, of 20): 20 dogs
- Number of Dogs on Which Fleas were Controlled (Ctenocephalides felis [2]; Experiment 2, week 2, of 20): 20 dogs
- Number of Dogs on Which Fleas were Controlled (Ctenocephalides felis [2]; Experiment 2, week 3, of 20): 20 dogs
- Number of Dogs on Which Fleas were Controlled (Ctenocephalides felis [2]; Experiment 2, week 4, of 20): 20 dogs
- Number of Dogs on Which Fleas were Controlled (Ctenocephalides felis [2]; Experiment 2, week 5, of 20): 18 dogs
- Number of Dogs on Which Fleas were Controlled (Ctenocephalides felis [2]; Experiment 2, week 6, of 20): 13 dogs
- Average Dead in Treated (Ctenocephalides felis [2]; Test 1, week 0, control 6.2): 31.5
- Average Dead in Treated (Ctenocephalides felis [2]; Test 1, week 2, control 4.8): 40.4
- Average Dead in Treated (Ctenocephalides felis [2]; Test 1, week 6, control 3.2): 18.0
- Average Dead in Treated (Ctenocephalides felis [2]; Test 2, week 0, control 11.8): 43.5
- No. of Dead Fleas Recovered in 48 Hrs. (Ctenocephalides felis [2]; week 0): 18 and 44 and 41 and 34 and 26 and 38 and 28 and 50 and 21 and 22 and 40 and 24 and 25
- No. of Dead Fleas Recovered in 48 Hrs. (Ctenocephalides felis [2]; week 1): 30 and 44 and 53 and 43 and 14 and 37 and 26 and 74 and 49 and 57 and 33 and 31 and 38
- No. of Dead Fleas Recovered in 48 Hrs. (Ctenocephalides felis [2]; week 2): 54 and 39 and 55 and 40 and 27 and 64 and 31 and 44 and 38 and 32 and 43 and 50 and 42

Source: patent publication US3968207A, “Method of controlling fleas and ticks on cats and dogs” (priority 1975, dated 1976)
